The structures appear in SMILES notation. Values joined by “and” are separate entries in the source; they are usually repeats but may differ in a detail not shown here. Equal values may be shown once. Inconclusive results and toxic doses are left out.

Consider ten compounds from PubChem BioAssay AID248 (DTP/NCI, 2004).

For this assay, the system named is L1210 leukemia ip in BDF1 mice, survival T/C. The assay is described as follows: NCI In Vivo Anticancer Drug Screen. Data for tumor model L1210 Leukemia (intraperitoneal) in B6D2F1 (BDF1) mice. The conditions noted are these: endpoint: mean survival time, higher = longer survival. Summed up: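 Transplantable tumor model; survival measured in treated vs vehicle control mice. Value = treated/control.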

Where [1] appears, read: dose: 100.0 mg/kg/injection, schedule: Q01DX009 (ip), vehicle: saline with Tween-80.

In the case of `CCOC(=O)c1ccc(NC(=O)Oc2ccccc2C(C)C)cc1`, the T/C reads like this: under setting [1], 97 % of control and 107 % of control; (dose: 100.0 mg/kg/injection, schedule: Q04DX002 (ip), vehicle: saline with Tween-80) 101 % of control; (dose: 100.0 mg/kg/injection, schedule: Q04DX003 (ip), vehicle: saline with Tween-80) 97 % of control; (dose: 200.0 mg/kg/injection, schedule: Q01DX009 (ip), vehicle: saline with Tween-80) 93 % of control and 97 % of control; (dose: 200.0 mg/kg/injection, schedule: Q04DX002 (ip), vehicle: saline with Tween-80) 92 % of control; (dose: 200.0 mg/kg/injection, schedule: Q04DX003 (ip), vehicle: saline with Tween-80) 93 % of control. Besides, the T/C by setting is: (dose: 400.0 mg/kg/injection, schedule: Q01DX009 (ip), vehicle: saline with Tween-80) 89 % of control; (dose: 400.0 mg/kg/injection, schedule: Q04DX002 (ip), vehicle: saline with Tween-80) 92 % of control; (dose: 400.0 mg/kg/injection, schedule: Q04DX003 (ip), vehicle: saline with Tween-80) 102 % of control.
Take `CC(CO)(CO)NC(=O)c1ccc([N+](=O)[O-])cc1`: the T/C was 94 % of control (dose: 100.0 mg/kg/injection, schedule: Q01DX001 (ip), vehicle: carboxymethylcellulose (CMC)); 100 % of control (dose: 200.0 mg/kg/injection, schedule: Q01DX001 (ip), vehicle: carboxymethylcellulose (CMC)); 94 % of control (dose: 400.0 mg/kg/injection, schedule: Q01DX001 (ip), vehicle: carboxymethylcellulose (CMC)).
For the compound `CNC(=N)c1ccc(NC(=N)c2ccc(NC(=N)c3ccc(NC(=O)Nc4ccc(C(=N)NC)cc4)cc3)cc2)cc1`, the T/C by setting is: (dose: 1.87 mg/kg/injection, schedule: Q01DX015 (ip), vehicle: water) 114 % of control; (dose: 3.0 mg/kg/injection, schedule: Q01DX015 (sc), vehicle: water) 103 % of control; (dose: 4.4 mg/kg/injection, schedule: Q01DX015 (sc), vehicle: water) 101 % of control; (dose: 6.7 mg/kg/injection, schedule: Q01DX015 (sc), vehicle: water) 103 % of control; (dose: 7.5 mg/kg/injection, schedule: Q01DX015 (ip), vehicle: water) 206 % of control; (dose: 15.0 mg/kg/injection, schedule: Q01DX015 (sc), vehicle: water) 206 % of control. The T/C (dose: 22.5 mg/kg/injection, schedule: Q01DX015 (sc), vehicle: water) is 158 % of control.
With `CCCCCCCC(=O)N1C(C)CCC1C` (stereo not drawn), the T/C is 94 % of control (dose: 100.0 mg/kg/injection, schedule: Q04DX002 (ip), vehicle: saline); 94 % of control (dose: 200.0 mg/kg/injection, schedule: Q04DX002 (ip), vehicle: saline); 98 % of control (dose: 400.0 mg/kg/injection, schedule: Q04DX002 (ip), vehicle: saline).
Turning to `NC(=O)NOCc1ccc([N+](=O)[O-])cc1`, the T/C runs as follows: (dose: 100.0 mg/kg/injection, schedule: Q04DX003 (ip), vehicle: saline) 98 % of control; (dose: 200.0 mg/kg/injection, schedule: Q04DX003 (ip), vehicle: saline) 101 % of control; (dose: 400.0 mg/kg/injection, schedule: Q04DX003 (ip), vehicle: saline) 115 % of control.
Consider `O=C(NCCCl)NC1C(O)CCCC1O` (stereo not drawn), for which the T/C was 103 % of control (dose: 100.0 mg/kg/injection, schedule: Q01DX001 (ip), vehicle: saline); 97 % of control (dose: 200.0 mg/kg/injection, schedule: Q01DX001 (ip), vehicle: saline); 103 % of control (dose: 400.0 mg/kg/injection, schedule: Q01DX001 (ip), vehicle: saline).
As to `Clc1cnc(C(Cl)(Cl)Cl)c(Cl)n1` (tested in a mixture with another compound), the T/C by setting is: (dose: 12.5 mg/kg/injection, schedule: Q01DX009 (ip), vehicle: Klucel (hydroxypropylcellulose) (HPC)) 94 % of control; (dose: 25.0 mg/kg/injection, schedule: Q01DX009 (ip), vehicle: Klucel (hydroxypropylcellulose) (HPC)) 97 % of control; (dose: 50.0 mg/kg/injection, schedule: Q01DX009 (ip), vehicle: Klucel (hydroxypropylcellulose) (HPC)) 100 % of control.
Take `O=NN(CCCl)C(=O)Nc1cc(NC(=O)N(CCCl)N=O)cc(C(=O)O)c1`: the T/C is, setting by setting: (dose: 0.22 mg/kg/injection, schedule: Q01DX009 (ip), vehicle: saline) 110 % of control; (dose: 0.34 mg/kg/injection, schedule: Q01DX009 (ip), vehicle: saline) 117 % of control; (dose: 0.52 mg/kg/injection, schedule: Q01DX009 (ip), vehicle: saline) 290 % of control; (dose: 0.62 mg/kg/injection, schedule: Q01DX001 (ip), vehicle: carboxymethylcellulose (CMC)) 112 % of control; (dose: 0.83 mg/kg/injection, schedule: Q04DX003 (ip), vehicle: saline) 114 % of control; (dose: 1.25 mg/kg/injection, schedule: Q01DX001 (ip), vehicle: carboxymethylcellulose (CMC)) 123 % of control. The T/C (dose: 1.25 mg/kg/injection, schedule: Q04DX003 (ip), vehicle: saline) is 122 % of control; the T/C (dose: 1.7 mg/kg/injection, schedule: Q01DX001 (ip), vehicle: saline) is 155 % of control; the T/C (dose: 2.6 mg/kg/injection, schedule: Q01DX001 (ip), vehicle: saline with Tween-80) is 151 % of control; the T/C (dose: 5.0 mg/kg/injection, schedule: Q01DX009 (ip), vehicle: Klucel (hydroxypropylcellulose) (HPC)) is 93 % of control; the T/C (dose: 5.0 mg/kg/injection, schedule: Q01DX009 (ip), vehicle: saline) was 162 % of control; the T/C (dose: 6.6 mg/kg/injection, schedule: Q04DX003 (ip), vehicle: saline) was 153 % of control. The T/C is, setting by setting: (dose: 9.0 mg/kg/injection, schedule: Q01DX001 (ip), vehicle: saline) 152 % of control; (dose: 10.0 mg/kg/injection, schedule: Q01DX009 (ip), vehicle: Klucel (hydroxypropylcellulose) (HPC)) 150 % of control and 160 % of control; (dose: 10.0 mg/kg/injection, schedule: Q01DX009 (ip), vehicle: saline) 212 % of control; (dose: 12.0 mg/kg/injection, schedule: Q01DX001 (ip), vehicle: saline) 150 % of control; (dose: 13.0 mg/kg/injection, schedule: Q04DX003 (ip), vehicle: saline) 155 % of control; (dose: 15.0 mg/kg/injection, schedule: Q01DX009 (ip), vehicle: Klucel (hydroxypropylcellulose) (HPC)) 150 % of control. For the same compound, the T/C is 196 % of control (dose: 17.0 mg/kg/injection, schedule: Q01DX001 (ip), vehicle: saline with Tween-80); 195 % of control (dose: 20.0 mg/kg/injection, schedule: Q01DX009 (ip), vehicle: Klucel (hydroxypropylcellulose) (HPC)); 102 % of control (dose: 20.0 mg/kg/injection, schedule: Q01DX009 (ip), vehicle: saline); 161 % of control (dose: 20.0 mg/kg/injection, schedule: Q04DX003 (ip), vehicle: saline); 155 % of control (dose: 26.0 mg/kg/injection, schedule: Q01DX001 (ip), vehicle: saline with Tween-80); 152 % of control (dose: 26.0 mg/kg/injection, schedule: Q01DX001 (ip), vehicle: saline).
For the compound `O=C1OC(=O)c2c(O)cccc21`, the T/C was 101 % of control (dose: 12.5 mg/kg/injection, schedule: Q01DX001 (ip), vehicle: saline); 105 % of control (dose: 25.0 mg/kg/injection, schedule: Q01DX001 (ip), vehicle: saline); 98 % of control (dose: 25.0 mg/kg/injection, schedule: Q01DX009 (ip), vehicle: saline with Tween-80); 103 % of control (dose: 50.0 mg/kg/injection, schedule: Q01DX001 (ip), vehicle: saline); 104 % of control (dose: 50.0 mg/kg/injection, schedule: Q01DX009 (ip), vehicle: saline with Tween-80); 98 % of control under setting [1]. Further, for the setting “dose: 150.0 mg/kg/injection, schedule: Q01DX009 (ip), vehicle: saline with Tween-80”, the T/C is 118 % of control.
In the case of `Oc1ccc(C2CCc3ccccc32)cc1` (stereo not drawn), the T/C is 100 % of control (dose: 100.0 mg/kg/injection, schedule: Q01DX009 (ip), vehicle: Klucel (hydroxypropylcellulose) (HPC)); 95 % of control (dose: 100.0 mg/kg/injection, schedule: Q04DX003 (ip), vehicle: Klucel (hydroxypropylcellulose) (HPC)); 104 % of control (dose: 200.0 mg/kg/injection, schedule: Q01DX009 (ip), vehicle: Klucel (hydroxypropylcellulose) (HPC)); 100 % of control (dose: 200.0 mg/kg/injection, schedule: Q04DX003 (ip), vehicle: Klucel (hydroxypropylcellulose) (HPC)); 95 % of control (dose: 400.0 mg/kg/injection, schedule: Q01DX009 (ip), vehicle: Klucel (hydroxypropylcellulose) (HPC)); 93 % of control (dose: 400.0 mg/kg/injection, schedule: Q04DX003 (ip), vehicle: Klucel (hydroxypropylcellulose) (HPC)).
